≈ marks a conversion by molar mass, not a printed value. Numbered stars: 1 amine (or outer) side, 2 acyl side, 3 side chain; on linkers, the order of the positions; unused ones are H or OH. Square brackets hold non-standard residues; d marks the D form. Peptide text beside a SMILES is read from it. dAla(ψthiazole) = C[C@@H](N[*:1])c1nc(C(=O)[*:2])cs1; Trp(4-OMe) = COc1cccc2[nH]cc(C[C@H](N)C(=O)O)c12; X1 = CC(=O)[C@](C)(N[*:1])C(=O)[*:2]; dNMeY = CN[C@H](Cc1ccc(O)cc1)C(=O)O; Dhb = C/C=C(\N)C(=O)O; Sar = CNCC(=O)O
What was measured:
[1] = test system: Human immunodeficiency virus 1; assay: Antiviral activity against HIV1; format: functional, organism-based
Human alphaherpesvirus 1 [2] = assay: Antiviral activity against HSV-1 blue infected in African green monkey Vero cells assessed as reduction in virus induced cytopathogenicity by plaque reduction assay; format: functional, organism-based; conditions: Human alphaherpesvirus 1, blue
Human alphaherpesvirus 1 [3] = assay: Antiviral activity against HSV-1 153 infected in African green monkey Vero cells assessed as reduction in virus induced cytopathogenicity by plaque reduction assay; format: functional, organism-based; conditions: Human alphaherpesvirus 1, 153, Vero
[4] = Cytotoxicity against African green monkey Vero cells assessed as reduction in cell viability measured after 72 hrs by MTT assay; format: toxicity, cell-based; conditions: chlorocebus sabaeus
Human alphaherpesvirus 1 [5] = assay: Antiviral activity against HSV-1 KOS infected in African green monkey Vero cells assessed as reduction in virus induced cytopathogenicity by plaque reduction assay; format: functional, organism-based; conditions: Human alphaherpesvirus 1, KOS
Human alphaherpesvirus 1 [6] = assay: Antiviral activity against HSV-1 106 infected in African green monkey Vero cells assessed as reduction in virus induced cytopathogenicity by plaque reduction assay; format: functional, organism-based; conditions: Human alphaherpesvirus 1, 106, Vero
Human alphaherpesvirus 1 [7] = assay: Antiviral activity against HSV-1 at 25 uM relative to control; format: functional
SARS-CoV-2 [8] = assay: microbe, parasite or virus in culture; conditions: Severe acute respiratory syndrome coronavirus 2, NRC-03-nhCoV, Vero C1008, 72 h
[9] = Cytotoxicity against African green monkey Vero E6 cells assessed as reduction in cell growth incubated for 24 hrs by WST-8 assay; format: toxicity, cell-based, Vero C1008; conditions: chlorocebus sabaeus
SARS-CoV-2 [10] = assay: Antiviral activity against SARS-CoV-2 RG2674 infected in African green monkey Vero cells assessed as reduction in virus-induced cytopathic effect incubated for 5 days by microscopic analysis; format: functional, organism-based; conditions: Severe acute respiratory syndrome coronavirus 2, RG2674, Vero, 120 h
[11] = test system: Human immunodeficiency virus 1; assay: Antiviral activity against wild type HIV-1 IIIB infected in human MT4 cells assessed as protection against virus-induced cytopathic effect incubated for 5 days by MTT assay; format: functional, organism-based; conditions: Human immunodeficiency virus 1, IIIB, MT4, 120 h
[12] = Cytotoxicity against human MT4 cells assessed as reduction in cell viability incubated for 5 days by MTT assay; format: toxicity, cell-based; conditions: time 5 day
[13] = test system: Human immunodeficiency virus 2; assay: Antiviral activity against HIV-2 ROD infected in C8166 cells assessed as reduction in viral replication measured after 3 days by ELISA; format: functional, organism-based; conditions: Human immunodeficiency virus 2, ROD, C8166, 72 h
[14] = test system: Human immunodeficiency virus 2; assay: Antiviral activity against wild type HIV-2 CBL-20 infected in human MT4 cells assessed as protection against virus-induced cytopathic effect incubated for 5 days by MTT assay; format: functional, organism-based; conditions: Human immunodeficiency virus 2, CBL-20, MT4, 120 h
[15] = test system: Human immunodeficiency virus 1; assay: Antiviral activity against HIV1 9495 infected in human C8166 cells assessed as protection against virus-induced cytopathic effect incubated for 5 days by MTT assay; format: functional, organism-based; conditions: Human immunodeficiency virus 1, 9495, C8166, 120 h
[16] = test system: Human immunodeficiency virus 1; assay: Antiviral activity against HIV1 A17 infected in human C8166 cells assessed as protection against virus-induced cytopathic effect incubated for 5 days by MTT assay; format: functional, organism-based; conditions: Human immunodeficiency virus 1, A17, C8166, 120 h
Human alphaherpesvirus 3 = assay: Antiviral activity against VZV infected HFF cells assessed as reduction in viral replication; format: functional, organism-based; conditions: Human alphaherpesvirus 3, HFF
Human alphaherpesvirus 1 [17] = assay: Antiviral activity against HSV-1 infected in African green monkey Vero cells by plaque reduction assay; format: functional, organism-based; conditions: Human alphaherpesvirus 1, Vero
Human alphaherpesvirus 2 = assay: Antiviral activity against HSV-2 186 infected in African green monkey Vero cells assessed as reduction in virus induced cytopathogenicity by plaque reduction assay; format: functional, organism-based; conditions: Human alphaherpesvirus 2, Vero
[18] = test system: Human immunodeficiency virus 2; assay: Antiviral activity against HIV-2 ROD infected in human MT4 cells assessed as protection against virus induced cytopathic effect and measured after 5 days by MTT spectrophotometric assay; format: functional, organism-based; conditions: Human immunodeficiency virus 2, ROD, MT4, 120 h
A549 = assay: Cytotoxicity against human A549 cells assessed as reduction in cell growth incubated for 5 days by MTS assay; format: functional; conditions: A549, 120 h, time 5 day
[19] = molecular target: Human immunodeficiency virus type 1 reverse transcriptase (Human immunodeficiency virus 1, UniProt Q72547); assay: Inhibition of HIV-1 NL4-3 reverse transcriptase by RT-PCR analysis
[20] = molecular target: T1, Replicase polyprotein 1ab (Severe acute respiratory syndrome coronavirus 2, UniProt P0DTD1); assay: Inhibition of SARS-CoV-2 3CL protease
[21] = molecular target: T1, Replicase polyprotein 1ab; assay: Inhibition of SARS-CoV-2 3CL protease by FRET assay
Calu-3 = assay: Cytotoxicity against human Calu-3 cells assessed as reduction in cell viability measured after 48 hrs by Hoechst 33342 staining based analysis; format: functional
SARS-CoV-2 [22] = assay: Antiviral activity against SARS-CoV-2 […] B.1.351 Beta infected in human 293TA cells assessed as reduction of viral growth measured after 48 hrs by luciferase assay; format: functional, organism-based; conditions: Severe acute respiratory syndrome coronavirus 2, […] B.1.351 Beta
SARS-CoV-2 [23] = assay: Antiviral activity against SARS-CoV-2 B.1.1.7 infected in human Calu-3 cells assessed as inhibition of viral infection measured after 48 hrs by Hoechst 33342 staining based analysis; format: functional, organism-based; conditions: Severe acute respiratory syndrome coronavirus 2, B.1.1.7, Calu-3, 48 h
Influenza A virus = assay: Antiviral activity against influenza A virus (H1N1/A/WSN/33) infected in MDCK cells assessed as inhibition of cytopathic effect incubated for 48 hrs by MTT assay; format: functional, organism-based; conditions: H1N1/A/WSN/33, MDCK

For `O=c1cc(-c2ccc(O)c(-c3c(O)cc(O)c4c(=O)cc(-c5ccc(O)cc5)oc34)c2)oc2cc(O)cc(O)c12` [AMENTOFLAVONE], the EC50 [1] was 8.3 µM.
Work on `COc1ccc(C[C@@H]2NC(=O)[C@@H]3CCCN3C(=O)[C@H](C(C)C)NC(=O)[C@@H](Cc3ccc(O)cc3)N(C)C(=O)[C@H](Cc3ccc(OC)cc3)NC2=O)cc1` (cyclo(PY(Me)Y(Me)[dNMeY]V)) yielded an EC50 (Human alphaherpesvirus 1 [2]) of 7.9 µM, an EC50 (Human alphaherpesvirus 1 [3]) of 8.28 µM and a CC50 at 72 h [4] of 209 µM. The EC50 (Human alphaherpesvirus 1 [5]) was 7.9 µM and the EC50 (Human alphaherpesvirus 1 [6]) was 10.4 µM.
For `C=C1CC[C@]2(O)[C@H]1CC1=C(C)C(=O)OC1=C[C@]2(C)O`, the Activity (Human alphaherpesvirus 1 [7]) was 69.2%.
With `O=C(O)[C@H]1O[C@@H](Oc2cc3oc(-c4ccccc4)cc(=O)c3c(O)c2O)[C@H](O)[C@@H](O)[C@@H]1O` [BAICALIN] the EC50 (SARS-CoV-2 [8]) was 27.9 µM and the CC50 at 24 h [9] was greater than 200 µM.
In the case of `Nc1ncnc2c1ncn2[C@@H]1O[C@H](CO)C[C@H]1O` [CORDYCEPIN], the EC50 (SARS-CoV-2 [10]) is reported as 2 µM.
For `C=C(C)[C@]1(O)C[C@@H](C)[C@@]2(O)[C@H]([C@H]1OC(=O)/C=C/C=C/CCCCC)[C@@H]1O[C@]1(CO)[C@@H](O)[C@]1(O)C(=O)C(C)=C[C@H]12`, the EC50 [11] was 0.00872 µg/mL (≈ 0.016 µM), the CC50 at 120 h [12] was 65.6 µg/mL (≈ 120 µM) and the EC50 [13] was 0.0189 µg/mL (≈ 0.0345 µM). For the same molecule, the EC50 [14] was 0.0319 µg/mL (≈ 0.0584 µM), the EC50 [15] was 0.0157 µg/mL (≈ 0.0286 µM) and the EC50 [16] was 0.00381 µg/mL (≈ 0.00697 µM).
Molecule `CCCCCCCCCc1oc2c(O)ccc(-c3oc4cc(O)cc(O)c4c(=O)c3O[C@@H]3O[C@H](CO)[C@H](O)[C@H](O)[C@H]3O)c2c1C=O` has an EC50 (Human alphaherpesvirus 3) of 23.5 µM, an EC50 (Human alphaherpesvirus 1 [17]) of 23.5 µM and an EC50 (Human alphaherpesvirus 2) of 36.4 µM. For the same molecule, the CC50 at 72 h [4] was 166 µM.
Molecule `C=C(C)[C@@]12O[C@@]3(/C=C/C=C/C=C/CCC)O[C@@H]1[C@@H]1[C@@H]4O[C@]4(CO)[C@@H](O)[C@]4(O)C(=O)C(C)=C[C@H]4[C@@]1(O3)[C@H](C)[C@H]2OC(=O)/C=C/c1ccc(O)cc1` has an EC50 [18] greater than 0.034 µM.
For `COc1ccc(C[C@@H](CO)[C@H](COC(C)=O)Cc2ccc(OC)c(OC)c2)cc1OC`, the CC50 (A549) was 11.6 µg/mL (≈ 26.8 µM) and the IC50 [19] was 12.2 µM.
`COc1cc(O)c(C(=O)[C@@H]2[C@H](CC=C(C)C)C(C)=CC[C@H]2c2ccccc2)c(O)c1` [PANDURATIN A] showed a CC50 at 24 h [9] of 14.7 µM and an IC50 [20] of 0.81 µM.
`CC(C)=CCC/C(C)=C/COc1c2ccoc2cc2oc(=O)ccc12` [BERGAMOTTIN] gave an IC50 [21] of 9.64 µM, a CC50 (Calu-3) greater than 100 µM and an IC50 (SARS-CoV-2 [22]) of 14.2 µM. The IC50 (SARS-CoV-2 [23]) was 8.15 µM.
For `C/C=C1\NC(=O)[C@@H](C)NC(=O)CNC(=O)[C@](C)(C(C)=O)NC(=O)[C@H](Cc2c[nH]c3cccc(OC)c23)NC(=O)c2csc(n2)[C@@H](C)NC(=O)CN(C)C1=O` (cyclo([Dhb][Sar][dAla(ψthiazole)][Trp(4-OMe)][X1]G[dA])), the EC50 (Influenza A virus) was 0.3 µM.

— ChEMBL document CHEMBL5537109, “Natural products as potential lead compounds to develop new antiviral drugs over the past decade” (Eur J Med Chem, 2023)
